Test results taken from ChEMBL document CHEMBL3632477 (2015).
Where a SMILES comes first, the peptide text is derived from it. Bridges are numbered along the chain shown (N, C = ends). [ ]: non-standard residue; d: D form. Bip(2'-Et-4'-OMe) = CCc1cc(OC)ccc1-c1ccc(C[C@H](N)C(=O)O)cc1; αMePhe(2,6-F2) = C[C@](N)(Cc1c(F)cccc1F)C(=O)O; Bip = N[C@@H](Cc1ccc(-c2ccccc2)cc1)C(=O)O; hhPhe = N[C@@H](CCCc1ccccc1)C(=O)O; αMeF = C[C@](N)(Cc1ccccc1)C(=O)O; Aib = CC(C)(N)C(=O)O

Target: Glucagon-like peptide 1 receptor (Homo sapiens, UniProt P43220)
Sequence (P43220 whole entry): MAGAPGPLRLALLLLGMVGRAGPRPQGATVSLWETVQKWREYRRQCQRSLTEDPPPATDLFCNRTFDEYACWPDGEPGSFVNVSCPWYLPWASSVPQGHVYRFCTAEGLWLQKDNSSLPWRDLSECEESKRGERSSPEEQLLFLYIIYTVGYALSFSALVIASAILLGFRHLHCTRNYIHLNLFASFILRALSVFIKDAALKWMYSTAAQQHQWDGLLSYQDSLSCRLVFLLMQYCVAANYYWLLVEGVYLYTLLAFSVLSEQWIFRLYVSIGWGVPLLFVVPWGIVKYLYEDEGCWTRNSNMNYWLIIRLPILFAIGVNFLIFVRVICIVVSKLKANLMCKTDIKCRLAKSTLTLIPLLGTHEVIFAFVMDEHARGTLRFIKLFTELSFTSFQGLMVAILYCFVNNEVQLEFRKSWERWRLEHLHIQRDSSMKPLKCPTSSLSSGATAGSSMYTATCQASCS
Experiment: Agonist activity at human GLP-1R expressed in CHO-K1 cells assessed as increase in cAMP level incubated for 30 mins
Format: functional, cell-based

| Compound | EC50 |
| --- | --- |
| CCc1cc(OC)ccc1-c1ccc(C[C@H](NC(=O)[C@H](CC(=O)O)NC(=O)[C@H](CS)NC(=O)[C@@H](NC(=O)[C@](C)(Cc2ccccc2F)NC(=O)[C@@H](NC(=O)CNC(=O)[C@H](CCC(=O)O)NC(=O)C(C)(C)NC(=O)[C@@H](N)Cc2cnc[nH]2)[C@@H](C)O)[C@@H](C)O)C(=O)N[C@@H](CCCc2ccccc2)C(=O)N[C@H](CS)C(N)=O)cc1 | 1150 nM |
| CCc1cc(OC)ccc1-c1ccc(C[C@H](NC(=O)[C@H](CC(=O)O)NC(=O)[C@H](CO)NC(=O)[C@@H](NC(=O)[C@](C)(Cc2ccccc2F)NC(=O)[C@H](CS)NC(=O)CNC(=O)[C@H](CCC(=O)O)NC(=O)C(C)(C)NC(=O)[C@@H](N)Cc2cnc[nH]2)[C@@H](C)O)C(=O)N[C@@H](CCCc2ccccc2)C(=O)N[C@H](CS)C(N)=O)cc1 | > 1000 nM |
| CCc1cc(OC)ccc1-c1ccc(C[C@@H]2NC(=O)[C@H](CC(=O)O)NC(=O)[C@H](CO)NC(=O)[C@@H]3CSSC[C@@H](C(=O)O)NC(=O)[C@H](CSSC[C@H](NC(=O)CNC(=O)[C@H](CCC(=O)O)NC(=O)C(C)(C)NC(=O)[C@H](Cc4cnc[nH]4)NC(C)=O)C(=O)N[C@@](C)(Cc4c(F)cccc4F)C(=O)N3)NC(=O)[C@H](CC(C)C)NC(=O)[C@H](CCCc3ccccc3)NC2=O)cc1 (Ac-H[Aib]EGC[αMePhe(2,6-F2)]CSD[Bip(2'-Et-4'-OMe)][hhPhe]LCC-OH; disulfide 5-13, 7-14) | 69 nM |
| CCc1cc(OC)ccc1-c1ccc(C[C@H](NC(=O)[C@H](CC(=O)O)NC(=O)[C@H](CO)NC(=O)[C@@H](NC(=O)[C@](C)(Cc2ccccc2)NC(=O)[C@@H](NC(=O)CNC(=O)[C@H](CCC(=O)O)NC(=O)[C@@H]2CCCN2C(=O)[C@@H](N)Cc2cnc[nH]2)[C@@H](C)O)[C@@H](C)O)C(=O)N[C@@H](CCCc2ccccc2)C(=O)N[C@H]2CSSC[C@@H](C(=O)N[C@@H](CO)C(=O)O)NC(=O)[C@H](CC(C)C)NC(=O)[C@H](CC(C)C)NC(=O)CNC(=O)[C@H](CC(C)C)NC(=O)[C@H](CC(C)C)NC(=O)[C@H](CC(C)C)NC(=O)CNC(=O)CNC2=O)cc1 (H-HPEGT[αMeF]TSD[Bip(2'-Et-4'-OMe)][hhPhe]CGGLLLGLLCS-OH; disulfide 12-21) | 130 nM |
| CCc1cc(OC)ccc1-c1ccc(C[C@H](NC(=O)[C@H](CC(=O)O)NC(=O)[C@H](CO)NC(=O)[C@@H](NC(=O)[C@](C)(Cc2ccccc2)NC(=O)[C@@H](NC(=O)CNC(=O)[C@H](CCC(=O)O)NC(=O)[C@@H]2CCCN2C(=O)[C@@H](N)Cc2cnc[nH]2)[C@@H](C)O)[C@@H](C)O)C(=O)N[C@@H](CCCc2ccccc2)C(=O)N[C@H]2CSSC[C@@H](C(=O)N[C@@H](CO)C(=O)O)NC(=O)[C@H](C)NC(=O)CNC(=O)CNC(=O)CNC(=O)[C@H](C)NC(=O)[C@H](C)NC(=O)[C@H](Cc3ccc(-c4ccccc4)cc3)NC(=O)CNC2=O)cc1 (H-HPEGT[αMeF]TSD[Bip(2'-Et-4'-OMe)][hhPhe]CG[Bip]AAGGGACS-OH; disulfide 12-21) | 47 nM |
| CCc1cc(OC)ccc1-c1ccc(C[C@H](NC(=O)[C@H](CC(=O)O)NC(=O)[C@H](CO)NC(=O)[C@@H](NC(=O)[C@](C)(Cc2c(F)cccc2F)NC(=O)[C@@H](NC(=O)CNC(=O)[C@H](CCC(=O)O)NC(=O)[C@@H]2CCCN2C(=O)[C@@H](N)Cc2cnc[nH]2)[C@@H](C)O)[C@@H](C)O)C(=O)N[C@@H](CCCc2ccccc2)C(=O)N[C@H]2CSSC[C@@H](C(=O)N[C@@H](CO)C(N)=O)NC(=O)[C@H](C)NC(=O)CNC(=O)CNC(=O)CNC(=O)[C@H](C)NC(=O)[C@H](C)NC(=O)CNC(=O)CNC2=O)cc1 (H-HPEGT[αMePhe(2,6-F2)]TSD[Bip(2'-Et-4'-OMe)][hhPhe]CGGAAGGGACS-NH2; disulfide 12-21) | 13 nM |
